From ChEMBL document CHEMBL5674877, “PRMT5: A novel regulator of Hepatitis B virus replication and an arginine methylase of HBV core” (PLoS One, 2017) come the findings set out here.

Common to all, as to assay type: cell-based
Assay [1] deals with Protein arginine N-methyltransferase 5 (Homo sapiens) (UniProt O14744). As to the kind of experiment: Inhibition of PRMT5 in human HepG2_hNTCP cells transfected with constant amounts of HBc-HA assessed as decrease in intensity of methylation of SmB/B' at 0.5 to 500 nM incubated for 72 hrs by Western blot analysis. The conditions noted are these: HepG2-hNTCP, dose 0.5-500 nM. (A western blot detects proteins with antibodies after separation by electrophoresis.)
Chain of Protein arginine N-methyltransferase 5 (Homo sapiens) (O14744 whole entry): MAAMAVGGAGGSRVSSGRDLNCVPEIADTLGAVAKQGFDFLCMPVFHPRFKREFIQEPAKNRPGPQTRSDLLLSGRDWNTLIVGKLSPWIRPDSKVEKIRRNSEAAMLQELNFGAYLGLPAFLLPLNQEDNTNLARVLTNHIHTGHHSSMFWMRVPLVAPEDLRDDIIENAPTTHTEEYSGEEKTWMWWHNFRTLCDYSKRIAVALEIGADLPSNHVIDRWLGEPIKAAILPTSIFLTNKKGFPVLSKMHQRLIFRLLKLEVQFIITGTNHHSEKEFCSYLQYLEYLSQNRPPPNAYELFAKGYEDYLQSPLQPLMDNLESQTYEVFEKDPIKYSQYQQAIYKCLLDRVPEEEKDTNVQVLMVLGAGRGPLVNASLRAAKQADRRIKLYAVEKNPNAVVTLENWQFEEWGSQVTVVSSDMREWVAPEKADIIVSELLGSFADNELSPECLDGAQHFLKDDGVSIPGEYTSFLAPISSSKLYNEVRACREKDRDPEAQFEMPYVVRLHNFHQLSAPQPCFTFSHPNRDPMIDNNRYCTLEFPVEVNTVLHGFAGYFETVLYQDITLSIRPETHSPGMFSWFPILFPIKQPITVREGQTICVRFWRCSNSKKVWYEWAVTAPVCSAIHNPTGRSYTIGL

Assay [2] has the same target. As to the kind of experiment: Inhibition of PRMT5 in human HepG2_hNTCP cells transfected with constant amounts of HBc-HA assessed as reduction in symmetric arginine dimethylation of HBc at 0.5 to 500 nM incubated for 72 hrs by Western blot analysis. The settings on record: HepG2-hNTCP, dose 0.5-500 nM.
Assay [3] shares this target. Briefly: Inhibition of PRMT5 in human HepG2_hNTCP cells transfected with constant amounts of HBc-HA assessed as reduction in symmetric arginine dimethylation of HBc at 5 nM incubated for 72 hrs by Western blot analysis relative to control. The conditions noted are these: HepG2-hNTCP.
Assay [4] has the same target. As to the kind of experiment: Inhibition of PRMT5 in human HepG2_hNTCP cells transfected with constant amounts of HBc-HA assessed as decrease in intensity of methylation of SmD3 at 0.5 to 500 nM incubated for 72 hrs by Western blot analysis. The settings on record: HepG2-hNTCP, dose 0.5-500 nM.

`O=C(NC[C@H](O)CN1CCc2ccccc2C1)c1ccnc(NC2CCC2)c1`: the inhibition entry in assay [1], in assay [2] and in assay [4] was “Dose-Dependent Effect” in each case. In assay [3], the fold change (FC) was found to be 0.5.
